The nature of test [1]: Non-competitive antagonist activity at human CB2R expressed in CHO cell membranes assessed as N-cycloheptyl-1,2-dihydro-1-(4-fluorobenzyl)-6-methyl-2-oxo-5-phenyl-pyridine-3-carboxamide EC50 at 1000 nM preincubated with compound for 30 mins followed by GTPgammaS addition and measured after 90 mins by [35S]GTPgammaS assay (Rvb = 19.4 nM).
A short description of test [2]: Competitive antagonist activity at human CB2R expressed in CHO cell membranes assessed as rightward shift of N-cycloheptyl-1,2-dihydro-5-bromo-1-(4-fluoro benzyl)-6-methyl-2-oxo-pyridine-3-carboxamide-induced GTPgammaS binding by measuring N-cycloheptyl-1,2-dihydro-5-bromo-1-(4-fluoro benzyl)-6-methyl-2-oxo-pyridine-3-carboxamide EC50 at 1000. For orientation: GTPγS is a poorly hydrolysed GTP analogue; its binding reports G protein activation.

Test [3] in a line: Non-competitive antagonist activity at human CB2R expressed in CHO cell membranes assessed as N-cycloheptyl-1,2-dihydro-1-(4-fluorobenzyl)-6-methyl-2-oxo-5-phenyl-pyridine-3-carboxamide EC50 at 100 nM preincubated with compound for 30 mins followed by GTPgammaS addition and measured after 90 mins by [35S]GTPgammaS assay (Rvb = 19.4 nM).
Test [4] can be described thus: Competitive antagonist activity at human CB2R expressed in CHO cell membranes assessed as rightward shift of N-cycloheptyl-1,2-dihydro-5-bromo-1-(4-fluoro benzyl)-6-methyl-2-oxo-pyridine-3-carboxamide-induced GTPgammaS binding by measuring N-cycloheptyl-1,2-dihydro-5-bromo-1-(4-fluoro benzyl)-6-methyl-2-oxo-pyridine-3-carboxamide EC50 at 100.
A short description of test [5]: Competitive antagonist activity at human CB2R expressed in CHO cell membranes assessed as rightward shift of N-cycloheptyl-1,2-dihydro-5-bromo-1-(4-fluoro benzyl)-6-methyl-2-oxo-pyridine-3-carboxamide-induced GTPgammaS binding by measuring N-cycloheptyl-1,2-dihydro-5-bromo-1-(4-fluoro benzyl)-6-methyl-2-oxo-pyridine-3-carboxamide EC50 at 300.
Test [6] is described as follows: Non-competitive antagonist activity at human CB2R expressed in CHO cell membranes assessed as N-cycloheptyl-1,2-dihydro-1-(4-fluorobenzyl)-6-methyl-2-oxo-5-phenyl-pyridine-3-carboxamide EC50 at 300 nM preincubated with compound for 30 mins followed by GTPgammaS addition and measured after 90 mins by [35S]GTPgammaS assay (Rvb = 19.4 nM).

The term EC50 denotes the midpoint of the concentration-response curve.

Take `COc1ccc(-c2cc(C(=O)NC3CCCCCC3)c(=O)n(Cc3ccc(F)cc3)c2C)cc1`: the EC50 is 103 nM in test [1]; 711 nM in test [2]; 102 nM in test [3]; 81 nM in test [4]; 192 nM in test [5]; 62 nM in test [6].
